Test results published in PubChem BioAssay AID330 (DTP/NCI, 2004).
Inconclusive results and toxic doses are left out. Square brackets hold non-standard residues; d marks the D form. Peptide text beside a SMILES is read from it. * marks the point of attachment. Cbz = O=C(OCc1ccccc1)*; Nva = CCC[CH](N)C(=O)O

Test system: P388 leukemia ip, CD2F1 mice, survival T/C
Test: NCI In Vivo Anticancer Drug Screen. Data for tumor model P388 Leukemia (intraperitoneal) in CD2F1 (CDF1) mice
Settings: endpoint: median survival time, higher = longer survival
In short: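 Mice carrying the transplanted tumor received test compound or vehicle. Survival was recorded in each group, and the value is the treated-group measurement divided by that of the vehicle-treated control group.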

[1] = dose: 50.0 mg/kg/injection, schedule: Q01DX009 (ip), vehicle: Klucel (hydroxypropylcellulose) (HPC)
[2] = dose: 100.0 mg/kg/injection, schedule: Q01DX009 (ip), vehicle: Klucel (hydroxypropylcellulose) (HPC)
[3] = dose: 200.0 mg/kg/injection, schedule: Q01DX009 (ip), vehicle: Klucel (hydroxypropylcellulose) (HPC)
[4] = dose: 60.0 mg/kg/injection, schedule: Q01DX005 (ip), vehicle: saline with Tween-80
[5] = dose: 120.0 mg/kg/injection, schedule: Q01DX005 (ip), vehicle: saline with Tween-80
[6] = dose: 240.0 mg/kg/injection, schedule: Q01DX005 (ip), vehicle: saline with Tween-80
[7] = dose: 100.0 mg/kg/injection, schedule: Q04DX003 (ip), vehicle: saline with Tween-80
[8] = dose: 200.0 mg/kg/injection, schedule: Q04DX003 (ip), vehicle: saline with Tween-80
[9] = dose: 400.0 mg/kg/injection, schedule: Q04DX003 (ip), vehicle: saline with Tween-80
[10] = dose: 50.0 mg/kg/injection, schedule: Q01DX009 (ip), vehicle: saline with Tween-80
[11] = dose: 100.0 mg/kg/injection, schedule: Q01DX009 (ip), vehicle: saline with Tween-80
[12] = dose: 200.0 mg/kg/injection, schedule: Q01DX009 (ip), vehicle: saline with Tween-80
[13] = dose: 60.0 mg/kg/injection, schedule: Q01DX005 (ip), vehicle: saline
[14] = dose: 120.0 mg/kg/injection, schedule: Q01DX005 (ip), vehicle: saline
[15] = dose: 240.0 mg/kg/injection, schedule: Q01DX005 (ip), vehicle: saline

SMILES: Nc1cc2c(c[n+](CCO)c3ccccc23)c2ccccc12
- T/C (dose: 12.5 mg/kg/injection, schedule: Q04DX003 (ip), vehicle: other): 118 % of control
- T/C (dose: 25.0 mg/kg/injection, schedule: Q04DX003 (ip), vehicle: other): 111 % of control
- T/C (dose: 50.0 mg/kg/injection, schedule: Q04DX003 (ip), vehicle: other): 118 % of control
- T/C (dose: 100.0 mg/kg/injection, schedule: Q04DX003 (ip), vehicle: other): 102 % of control

SMILES: Cc1ccc2nc(NC(=S)NCCNC(=S)Nc3ccc4cc(C)ccc4n3)ccc2c1
- T/C [1]: 94 % of control
- T/C [2]: 92 % of control
- T/C [3]: 90 % of control

SMILES: N#CC(C#N)=CNc1ccccc1C(=O)NCCCn1ccnc1
- T/C [4]: 93 % of control
- T/C [5]: 93 % of control
- T/C [6]: 95 % of control

SMILES: Nc1nnc(-c2ccc[n+]([O-])c2)o1
- T/C [4]: 96 % of control
- T/C [5]: 102 % of control
- T/C [6]: 105 % of control

SMILES: c1ccc2c(c1)[nH]c1cc3ccncc3cc12
- T/C (dose: 50.0 mg/kg/injection, schedule: Q04DX003 (ip), vehicle: saline with Tween-80): 94 % of control
- T/C [7]: 91 % of control
- T/C [8]: 87 % of control

SMILES: Cn1c(=O)c2c(nc3n2CC(CF)O3)n(C)c1=O (stereo not given)
- T/C [1]: 104 % of control
- T/C [2]: 104 % of control
- T/C [3]: 99 % of control

SMILES: O=C(Oc1ccc(Cl)cc1Cl)c1ccc([N+](=O)[O-])cc1
- T/C [2]: 96 % of control
- T/C [3]: 87 % of control
- T/C (dose: 400.0 mg/kg/injection, schedule: Q01DX009 (ip), vehicle: Klucel (hydroxypropylcellulose) (HPC)): 96 % of control

SMILES: CCOC(=O)C1CC1(C(=O)OCC)C(=O)OCC (stereo not given)
- T/C [7]: 96 % of control
- T/C [8]: 97 % of control
- T/C [9]: 92 % of control

SMILES: O=C1OC2=C(CCCC2)C(N2CCCCC2)C12SCCCS2 (stereo not given)
- T/C [7]: 109 % of control
- T/C [8]: 103 % of control
- T/C [9]: 101 % of control

SMILES: Oc1ccc(N=Nc2ccc3c4c(cccc24)-c2ccccc2-3)c2cccnc12
- T/C [1]: 99 % of control
- T/C [2]: 102 % of control
- T/C [3]: 114 % of control

SMILES: CC(Cl)(C=O)c1ccccc1 (stereo not given)
- T/C [4]: 100 % of control
- T/C [5]: 97 % of control

SMILES: O=C1N/C(=N\O)C(F)C(NO)N1 (stereo not given)
- T/C (dose: 11.25 mg/kg/injection, schedule: Q04DX002 (ip), vehicle: distilled water + Tween-80): 94 % of control
- T/C (dose: 22.5 mg/kg/injection, schedule: Q04DX002 (ip), vehicle: distilled water + Tween-80): 103 % of control
- T/C (dose: 45.0 mg/kg/injection, schedule: Q04DX002 (ip), vehicle: distilled water + Tween-80): 99 % of control
- T/C (dose: 90.0 mg/kg/injection, schedule: Q04DX002 (ip), vehicle: distilled water + Tween-80): 103 % of control
- T/C (dose: 180.0 mg/kg/injection, schedule: Q04DX002 (ip), vehicle: distilled water + Tween-80): 93 % of control
- T/C (dose: 360.0 mg/kg/injection, schedule: Q04DX002 (ip), vehicle: distilled water + Tween-80): 93 % of control

SMILES: O=C1Cc2ccccc2N1C(=O)c1cccc(Br)c1
- T/C (dose: 100.0 mg/kg/injection, schedule: Q01DX001 (ip), vehicle: Klucel (hydroxypropylcellulose) (HPC)): 98 % of control
- T/C (dose: 200.0 mg/kg/injection, schedule: Q01DX001 (ip), vehicle: Klucel (hydroxypropylcellulose) (HPC)): 95 % of control

SMILES: CC(C)(C)OC(=O)NCCCCC(NC(=O)OC(C)(C)C)C(=O)O (stereo not given)
- T/C [10]: 102 % of control
- T/C [11]: 101 % of control
- T/C [12]: 92 % of control

SMILES: O=C(O)c1cc(-c2ccc(-c3ccc(-c4cc(C(=O)O)c5cc(Cl)ccc5n4)cc3)cc2)nc2ccc(Cl)cc12
- T/C [11]: 92 % of control
- T/C [12]: 94 % of control
- T/C (dose: 400.0 mg/kg/injection, schedule: Q01DX009 (ip), vehicle: saline with Tween-80): 109 % of control

SMILES: CNC(=O)N(C)c1nc(-c2ccccc2)c(-c2ccccc2)n1Cc1ccc(Cl)cc1
- T/C (dose: 50.0 mg/kg/injection, schedule: Q04DX002 (ip), vehicle: saline with Tween-80): 94 % of control
- T/C (dose: 100.0 mg/kg/injection, schedule: Q04DX002 (ip), vehicle: saline with Tween-80): 99 % of control
- T/C (dose: 200.0 mg/kg/injection, schedule: Q04DX002 (ip), vehicle: saline with Tween-80): 92 % of control

SMILES: O=C1c2ccccc2SC[C@@H]2CCCN12
- T/C [13]: 101 % of control
- T/C [14]: 99 % of control
- T/C [15]: 99 % of control

SMILES: COc1ccc(/C=C/C(=O)C(C)(C)Br)cc1
- T/C [4]: 101 % of control
- T/C [5]: 101 % of control
- T/C [6]: 103 % of control

SMILES: C[C@@H]1C(=O)O[C@H]2[C@H]1CC[C@@]1(C)C[C@@H](I)C(=O)[C@@H](C)[C@H]21
- T/C (dose: 60.0 mg/kg/injection, schedule: Q01DX005 (ip), vehicle: Klucel (hydroxypropylcellulose) (HPC)): 92 % of control
- T/C (dose: 120.0 mg/kg/injection, schedule: Q01DX005 (ip), vehicle: Klucel (hydroxypropylcellulose) (HPC)): 108 % of control

SMILES: CCCC(NC(=O)OCc1ccccc1)C(=O)NC(C(=O)O)C(C)C (stereo not given) (Cbz-[Nva]-Val-OH; configuration not given here)
- T/C (dose: 50.0 mg/kg/injection, schedule: Q01DX005 (ip), vehicle: Klucel (hydroxypropylcellulose) (HPC)): 94 % of control
- T/C (dose: 100.0 mg/kg/injection, schedule: Q01DX005 (ip), vehicle: Klucel (hydroxypropylcellulose) (HPC)): 92 % of control
- T/C (dose: 200.0 mg/kg/injection, schedule: Q01DX005 (ip), vehicle: Klucel (hydroxypropylcellulose) (HPC)): 96 % of control

SMILES: NC(=O)N/N=C1\C(=O)N(c2ccc(S(N)(=O)=O)cc2)C(=O)C1C(=O)Nc1ccc(S(N)(=O)=O)cc1 (stereo not given)
- T/C [13]: 106 % of control
- T/C [14]: 102 % of control
- T/C [15]: 102 % of control

SMILES: COc1cccc2c1C(=O)c1c(O)c3c(c(O)c1C2=O)C[C@@](O)(C(C)=O)C[C@@H]3OC1CC(N(C)Cc2ccccc2)C(O)C(C)O1 (stereo not given in full)
- T/C (dose: 3.13 mg/kg/injection, schedule: Q04DX003 (ip), vehicle: distilled water + Tween-80): 111 % of control
- T/C (dose: 6.25 mg/kg/injection, schedule: Q04DX003 (ip), vehicle: distilled water + Tween-80): 101 % of control
- T/C (dose: 12.5 mg/kg/injection, schedule: Q04DX003 (ip), vehicle: distilled water + Tween-80): 118 % of control
- T/C (dose: 25.0 mg/kg/injection, schedule: Q04DX003 (ip), vehicle: distilled water + Tween-80): 172 % of control

SMILES: N#Cc1nc(CC(=O)c2ccc(Cl)c(Cl)c2)c(CC(=O)c2ccc(Cl)c(Cl)c2)nc1C#N
- T/C [4]: 114 % of control
- T/C [5]: 120 % of control
- T/C [6]: 86 % of control

SMILES: CC(/C=N\N=C(N)N)=N/N=C(N)N
- T/C (dose: 14.6 mg/kg/injection, schedule: Q01DX009 (ip), vehicle: saline): 100 % of control
- T/C (dose: 22.0 mg/kg/injection, schedule: Q01DX009 (ip), vehicle: saline): 120 % of control

SMILES: C(=N\N=C1c2ccccc2-c2ccccc21)/c1ccc2ccc3cccc4ccc1c2c34
- T/C (dose: 12.5 mg/kg/injection, schedule: Q01DX005 (ip), vehicle: saline with Tween-80): 93 % of control
- T/C (dose: 25.0 mg/kg/injection, schedule: Q01DX005 (ip), vehicle: saline with Tween-80): 95 % of control
- T/C (dose: 30.0 mg/kg/injection, schedule: Q01DX005 (ip), vehicle: saline with Tween-80): 88 % of control
- T/C (dose: 50.0 mg/kg/injection, schedule: Q01DX005 (ip), vehicle: saline with Tween-80): 91 % of control
- T/C [4]: 86 % of control
- T/C [5]: 88 % of control
- T/C [6]: 89 % of control

SMILES: Cc1cc(CSC(=N)N)c(C)cc1CSC(=N)N
- T/C (dose: 5.0 mg/kg/injection, schedule: Q01DX009 (ip), vehicle: saline with Tween-80): 100 % of control
- T/C (dose: 10.0 mg/kg/injection, schedule: Q01DX009 (ip), vehicle: saline with Tween-80): 109 % of control
- T/C (dose: 10.0 mg/kg/injection, schedule: Q04DX003 (ip), vehicle: saline with Tween-80): 108 % of control
- T/C (dose: 20.0 mg/kg/injection, schedule: Q01DX009 (ip), vehicle: saline with Tween-80): 109 % of control
- T/C (dose: 20.0 mg/kg/injection, schedule: Q04DX003 (ip), vehicle: saline with Tween-80): 104 % of control
- T/C (dose: 40.0 mg/kg/injection, schedule: Q04DX003 (ip), vehicle: saline with Tween-80): 116 % of control

SMILES: CCC(=O)C(=O)c1ccc(O)c(C)c1O
- T/C [10]: 100 % of control
- T/C [11]: 96 % of control
- T/C [12]: 90 % of control

SMILES: CCOC(=O)CSc1sc(C(=O)OCC)c(N)c1C#N
- T/C [10]: 87 % of control
